Reference: patent publication US20040242871A1, “Novel arylheteroalkylamine derivatives” (priority 2001, published 2004)

Legend:
[1] = target: T1, Nitric oxide synthase from induced murine macrophage cell line J774A-1 (Mus musculus, UniProt P29477); assay: Screen 1: nitric oxide synthase inhibition, conversion of 3H-L-arginine into 3H-L-citrulline, lysate of induced J774A-1 cells; assay type: biochemical; details: J774A-1 cell lysate (LPS/IFNg induced), 1 hour at room temperature; read-out: IC50 (concentration of drug substance which gives 50% enzyme inhibition in the assay)
T1 construct: The reaction is started by adding 50 μl of cell lysate (prepared as above); endogenous in cells; host or cells: J774A-1 murine macrophage cell line, induced with LPS and IFN-gamma; crude cell lysate
Experimental: The activity of compounds of formula (I), or a pharmaceutically acceptable salt, enantiomer or racemate thereof, may be screened for nitric oxide synthase inhibiting activity by a procedure based on that of Förstermann et al., Eur. J. Pharm., 1992, 225, 161-165. Nitric oxide synthase converts ^3H-L-arginine into ^3H-L-citrulline which can be separated by cation exchange chromatography and quantified by liquid scintillation counting.
Enzyme is prepared, after induction, from the cultured murine macrophage cell line J774A-1 (obtained from the laboratories of the Imperial Cancer Research Fund). J774A-1 cells are cultured in Dulbeccos Modified Eagles Medium (DMEM) supplemented with 10% foetal bovine serum, 4 mM L-glutamine and antibiotics (100 units/ml penicillin G, […] streptomycin & […] amphotericin B). Cells are routinely grown in […] flasks containing 35 ml medium kept at 37° C. and in a humidified atmosphere containing 5% CO2. […]
Labelled L-citrulline is separated from labelled L-arginine using Dowex AG-SOW. […] After allowing the samples to dry the L-citrulline is quantified by scintillation counting.
In a typical experiment basal activity is 300 dpm per 75 μl sample which is increased to 1900 dpm in the reagent controls. […] Compounds are tested at a range of concentrations and from the inhibitions obtained IC50 values are calculated. […]

Row | Compound | melting point [°C] | IC50 [1] [µM]
1 | Cl.Cl.N#Cc1cc(F)c(Cl)cc1S[C@H](C[C@H](N)CO)c1cccnc1 [Example 57, 2-[[(1R,3S)-3-Amino-4-hydroxy-1-(3-pyridinyl)butyl]thio]-4-chloro-5-fluorobenzonitrile dihydrochloride] | 252 to 255 | 
2 | Cl.Cl.N#Cc1ccc(Br)cc1S[C@H](C[C@H](N)CO)c1cccnc1 [Example 58, 2-[[(1R,3S)-3-Amino-4-hydroxy-1-(3-pyridyl)butyl]thio]-4-bromobenzonitrile dihydrochloride] | 278 to 280 | 
3 | Cc1nc(O[C@H](C[C@H](N)CO)c2nccs2)c(C#N)cc1F.Cl [Example 59, 2-[[(1R,3S)-3-Amino-4-hydroxy-1-(2-thiazolyl)butyl]oxy]-5-fluoro-6-methyl-3-pyridinecarbonitrile hydrochloride] | 148 to 150 | 
4 | COc1cc(S[C@H](C[C@H](N)CO)c2sccc2F)c(C#N)cn1.O=C(O)/C=C/C(=O)O [Example 60, 4-[[(1R,3S)-3-Amino-1-(3-fluoro-2-thienyl)-4-hydroxybutyl]thio]-6-methoxy-3-pyridinecarbonitrile (E)-butenedioate salt] | 177 to 178 | 
5 | N#Cc1cc(F)c(Cl)cc1O[C@H](C[C@H](N)CO)c1scnc1Cl.O=C(O)/C=C/C(=O)O [Example 61, 2-[[(1R,3S)-3-Amino-1-(4-chloro-5-thiazolyl)-4-hydroxybutyl]oxy]-4-chloro-5-fluorobenzonitrile (E)-butenedioate salt] | 177 to 178 | 
6 | N=C(N)NN [aminoguanidie] |  | 10
